Test results: paper PMC12751141, “Disrupting α-Synuclein–ClpP interaction restores mitochondrial function and attenuates neuropathology in Parkinson’s disease models” (Molecular Neurodegeneration, 2025)

Legend:
ClpP–αSyn interaction = assay: ClpP–αSyn co-immunoprecipitation in iPSC-derived neurons; format: cell-based, human; settings: A53T-αSyn neurons; 1 µM, five days; n = 4
Description: PD iPS cells lines (αSyn A53T, NN0004337, donor) and its isogenic corrected control line (NN0004344) were obtained from RUCDR Infinite Biologics. The iPS cells were differentiated into dopaminergic neuron-enriched neuronal culture with the protocol described previously. Briefly, iPS cell colonies were disassociated with accutase (Invitrogen), plated onto 6-well plates pre-coated with 2.5% Matrigel (BD Biosciences) and allowed to reach 80% confluence in mTeSR medium (Stem Cell Technology). For the first 10 days, cells were treated with SB431542 (10 µM; Tocris Bioscience) and Noggin (100 ng/ml) in Neural Media (NM) with FGF2 ([…]) and EGF ([…]). NM media contained: Neurobasal and DMEM/F12 (1:1), B-27 Supplement Minus Vitamin A (50×, Invitrogen), N2 Supplement (100X, Invitrogen), GlutaMAX (Invitrogen, 100×), 100 units/ml penicillin and 100 µg/ml streptomycin (Fisher); for the next 4 days, cells were treated with human recombinant Sonic hedgehog (SHH, 200 ng/ml) in neuronal differentiation medium. […]
Cells or tissues were lysed in total lysis buffer (50mM Tris-HCl, pH 7.5, 150mM NaCl, 1% Triton X-100, and protease inhibitor). […] The beads with immuno-precipitates were pulled down at 4000 g and washed four times with total lysis buffer/in vitro interaction buffer in the presence of 0.1% Triton X-100 and were analyzed by western blot analysis. […]

ClpP (SH-SY5Y cells) = assay: ClpP protein level, western blot, SH-SY5Y cells; format: cell-based
SH-SY5Y cells = assay: Cellular ATP in SH-SY5Y cells; format: cell-based
Method: Cells were seeded in 24-well plates, followed by the indicated treatment. The ATP level in each well was determined using the ATP assay kit according to the manufacturer’s procedures (Cayman Chemical, 700410).

αSyn monomer = αSyn monomer ELISA, Tet-inducible αSyn SH-SY5Y cells; format: cell-based, human; settings: vs TAT
Method: After one day incubation with doxycycline (1µM), αSyn tet-on inducible expression SHSY5Y cells were treated with TAT or CS2 peptides at 10 µM for another two days. The level of αSyn monomer released into culture medium was measured using LEGEND MAX human αSyn ELISA kit (448607, Biolegend). The level of extracellular and intracellular αSyn oligomers was measured using human alpha synuclein oligomer ELISA kit (MBS730762, Mybioresource).

mThy1-hSNCA mice = assay: Open-field test in mThy1-hSNCA mice; format: in vivo, mouse; settings: 3 mg/kg/day s.c.; age of 8-month; n = 12-15 mice/group; vs TAT
Method: C57BL/6 N-Tg (Thy1-SNCA)15Mjff/J (JAX: 017682) breeders (C57Bl/6NJ genetic background) were purchased from Jackson Laboratories. The mice were mated, bred, and genotyped in the animal facility of Case Western Reserve University. All mice were maintained at a 12-hour light/dark cycle (on 6 am, off 6 pm). All randomization and peptide treatments in mThy1-hSNCA mice were prepared by an experimenter not associated with the behavioral and neuropathology analysis. Only male mice were used in the study. mThy1-hSNCA transgenic mice and their age-matched WT littermates were implanted with a 28-day subcutaneous osmotic pump (Alzet, Cupertino CA, Model 2004) containing either TAT control peptide or CS2 peptide, which delivered the peptides at indicated rate (1 or 3 or 10 mg/kg/day). The pump was replaced once every four weeks. All mice were sacrificed at age of 10-month for neuropathology assessment.
The locomotor activity of all experimental mice was assessed in an open field chamber at 8-month-old. Briefly, the mice were placed in the center of an activity chamber (Omnitech Electronics) and allowed to explore the chamber while being tracked using an automated infrared tracking system (Vertax, Omnitech Electronics). A 24-hour locomotor activity analysis was performed. Both horizontal and vertical activity/movements were recorded.

SMILES: CC(C)[C@H](NC(=O)CNC(=O)CNC(=O)CCCCCNC(=O)[C@H](CCCNC(=N)N)NC(=O)[C@H](CCCNC(=N)N)NC(=O)[C@H](CCCNC(=N)N)NC(=O)[C@H](CCC(N)=O)NC(=O)[C@H](CCCNC(=N)N)NC(=O)[C@H](CCCNC(=N)N)NC(=O)[C@H](CCCCN)NC(=O)[C@H](CCCCN)NC(=O)[C@H](CCCNC(=N)N)NC(=O)CNC(=O)[C@@H](N)Cc1ccc(O)cc1)C(=O)N[C@H](C(=O)N[C@H](C(=O)N[C@@H](C)C(=O)O)[C@@H](C)O)C(C)C [CS2, TAT-C6-GGVVTA]
- ClpP–αSyn interaction by co-IP (ClpP–αSyn interaction): markedly reduced the ClpP–αSyn interaction
- ClpP level, Tet-inducible αSyn SH-SY5Y (ClpP (SH-SY5Y cells); Tet-inducible αSyn-expressing SH-SY5Y, vs TAT, n = 3): marked increase in ClpP levels
- ClpP protein level, SH-SY5Y (ClpP (SH-SY5Y cells); WT or A53T αSyn overexpression, 30 min pretreatment, n = 4–5 (CS1: n = 4)): significantly restored ClpP protein levels
- ATP content, αSyn-expressing cells (SH-SY5Y cells; SH-SY5Y expressing WT- or A53T-αSyn, n = 6): rescued upon CS2 treatment
- ATP production, healthy cells (SH-SY5Y cells; healthy SH-SY5Y, n = 4): did not affect cell viability nor ATP production
- extracellular αSyn monomer (αSyn monomer; 10 µM, two days, ELISA, n = 4): decreased levels
- intracellular αSyn monomer (αSyn monomer): decreased levels
- locomotor activity, open field (mThy1-hSNCA mice): ameliorated locomotor activity
